Data as given in US10653676B2 (Dana-Farber Cancer Institute, Inc., priority 2010, dated 2020).

Columns and labels:
USP1/UAF1 complex [1] = biological target: T1, USP1/UAF1 complex (Homo sapiens, UniProt O94782, G670A/G671A); conditions: bioactive libraries; in the range of Al-Ub-treated positive control; previously shown, US 2008/0167229 A1; cited from earlier work
T1 construct: This modified full length USP1 clone was PCR amplified and subcloned into pFastBac-HT vectors; His tag (N); made in house; host or cells: Sf9 insect cells (baculovirus)

[2] = tested on: HR pathway-proficient breast tumor line; conditions: preliminary xenograft studies, data not shown
From the text: Preliminary breast cancer xenograft studies with one HR pathway-proficient breast tumor line have been conducted.

USP1/UAF1 complex [3] = biological target: T1, USP1/UAF1 complex; experiment: high throughput screening for inhibitors of USP1 deubiquitinating activity; format: biochemical; conditions: library of approximately 150,000 compounds
Description: The ubiquitin-Rho based enzyme assay for high throughput screening was established in a 384-well format. The reaction buffer containing and USP1/UAF1 complex were added in 384 well plates using automated liquid handling robot-Bio-Tek Microfill (Bio-Tek Instrments Inc., VT), followed by addition of the compounds (in DMSO) from the compound library plates to wells using a pin transfer robotic system at a final concentration of 10 μM. The reaction was composed of 0.1 nM purified USP1/UAF complex, 75 nM ubiquitin Rhodamine (Ub-Rho, Boston Biochem, U-600) and 2 μM ubiquitin. Fluorescence was monitored in a FluoStar Galaxy Fluorometer (BMG Labtech). Fluorescence emission at 535 nm (λex=485 nm) was measured in an automated plate reader Envision 2 (Perkin Elmer, Mass.).
(§1) In order to develop a highly sensitive assay with easy readout for high throughput detection, the fluorogenic compound Ubiquitin-7-amido-4-methylcoumarin (AMC-Ub, Boston Biochem) was used as a substrate for USP1/UAF1 enzyme complex. USP1 catalyzes the cleavage of AMC-Ub, releasing free AMC moiety, which leads to increase in fluorescence emission at 460 nm (λex=380 nm). Dang et al. (1998) Biochemistry 37:1868-79. Catalytic activity towards AMC-Ub increases 35 fold compared to USP1 enzyme alone. Initial enzyme assay development was performed in 96-well plates with 100 μl reaction volume containing 20 mM HEPES-KOH, 0.1 mg/ml ovalbumin (Sigma), 0.5 mM EDTA, and 10 mM DTT. 2.5 nM USP1/UAF1 enzyme complex was mixed with the reaction buffer, incubated at 37° C. for 10 minutes and then 0.3 μM AMC-Ub was added. Fluorescence was measured using a Fluostar Galaxy Fluorometer (BMG Labtech Inc.).
Once the preliminary enzyme assay was established in 96-well format, it was optimized for 384 wells for high throughput screening (HTS) of inhibitors. The major points to be considered were the volume of the reaction and amount of AMC-Ub substrate to be used in the assay. Since the price of AMC-Ub is very high, in order to make it a feasible assay for HTS, lowest workable amount of the AMC conjugate was used. Reaction volume was minimized to 30 μl in order to meet the recommendation of ICCB-L screening facility (Harvard). In the preliminary optimization experiment, a series of pilot experiments were performed with varying AMC-Ub concentrations (0.025 μM to 0.2 μM), along with the varying concentration of USP1/UAF1 complex (0.2 nM to 3.2 nM). […] After incubating the enzyme and buffer at 37° C. for 10 minutes, AMC-Ub was added and fluorescence emission at 460 nm (λex=380 nm) was measured in an automated plate reader Envision 2 (Perkin Elmer). Fluorescence reading for all time points up to one hour was noted and the data for different AMC-Ub concentration range was plotted with each USP1/UAF1 enzyme complex concentration. […]

USP1/UAF1 complex [4] = biological target: T1, USP1/UAF1 complex; experiment: ubiquitin-AMC in vitro deubiquitination enzyme assay; format: biochemical; conditions: 4 hour preincubation; AMC-Ub in vitro enzyme assay; read-out: IC50
Description: Purified USP1/UAF1 complex was incubated with 1 μM C527 or DMSO for indicated time, followed by the addition of Ub-AMC at 0.5 μM final concentration. The fluorescence at […] was measured to indicate the enzymatic activity of USP1. […] 5A.
The in vitro enzymatic assays were performed using purified proteins from Sf9 cells as described previously (Cohn et al.). The assays using ubiquitin-AMC (Ub-7-amido-4-methylcoumarin; Boston Biochem) as substrate was carried out in a reaction buffer containing 20 mM HEPES-KOH (pH 7.8), 20 mM NaCl, 0.1 mg/ml ovalbumin, 0.5 mM EDTA and 10 mM dithiothreitol. The fluorescence was measured by FluoStar Galaxy Fluorometer (BMG Labtech). For the Ub-vinylsulfone (VS) assay, the proteins were incubated with Ub-VS at 0.5 μM final concentration for 1 h at 30° C., followed by the immunoblotting analysis.
as §1, with “Catalytic activity towards AMC-Ub increases 35 fold compared to USP1 enzyme alone.” left out
Hits from the initial screening were analyzed further in secondary screening. In this step, the compounds were re-tested for inhibition using the AMC-Ub in vitro enzyme assay. After reconfirming inhibition, different concentration range of the inhibitors were tested to show dose dependency of inhibition and IC50 calculation.

HeLa cells = experiment: DNA damage response markers by immunoblotting; format: cell-based, human; conditions: 24 hrs, MMC 1 μM positive control, FIG. 9A
Description: FIG. 9 is a composite figure showing that C527 causes DNA damage and inhibits the proliferation of tumor cells. […] HeLa cells were treated with C527 at the indicated concentrations for 24 hrs, and cells were subjected to immunoblotting. Mitomycin C (MMC, 1 μM) was used as a positive control. […] HeLa cells were seeded in a 6-well plate and treated with C527 at the indicated concentrations. Cell proliferation was evaluated using a clonogenic assay.
Impaired HR integrity may lead to genotoxic effect. Genotoxic agents are known to directly activate DNA damage response pathways, resulting in FANCD2 monoubiquitination and CHK1 phosphorylation (FIG. 9A).

[5] = tested on: endogenous DUB enzyme complexes; experiment: HA-Ub-VS labelling of other endogenous DUBs in HeLa cell extracts; format: biochemical, human; conditions: HeLa cell extracts pretreated 4 h (Ub-Ald 5 μM), then Ub-VS 40 min at 30° C.; FIG. 7
Description: FIG. 7 is a composite figure depicting preferential inhibition of the activity of native USP1/UAF1 by C527. HeLa cell extracts were incubated with ubiquitin-aldehyde (Ub-Ald, 5 μM) or C527 at indicated concentrations for 4 h, followed by the addition of 0.5 μM Ub-Vs for 40 min. The reaction was split into two aliquots and subjected to immunoblotting for HA or USP1, respectively.
The ability of C527 to inhibit the deubiquitinating activity of native USP1 complexes derived from human cells was determined next (FIG. 7). For this purpose, the HA-tagged ubiquitin-VS, an affinity reagent known to covalently modify and trap active DUB enzymes in cell extracts was used. Cell extracts prepared from HeLa cells were pretreated with increasing concentrations of C527 for 4 h, followed by the incubation with Ub-VS for 40 min at 30° C. The enzymatic activity of endogenous DUBs was indicated by the conjugation of Ub-VS, detected as HA-labeling (see FIG. 7, high molecular weight bands). […] Ub-VS conjugation was inhibited by ubiquitin-aldehyde (Ub-Ald), a non-specific inhibitor of DUBs (lane 3).

T1 sequence (O94782 whole entry G670A/G671A): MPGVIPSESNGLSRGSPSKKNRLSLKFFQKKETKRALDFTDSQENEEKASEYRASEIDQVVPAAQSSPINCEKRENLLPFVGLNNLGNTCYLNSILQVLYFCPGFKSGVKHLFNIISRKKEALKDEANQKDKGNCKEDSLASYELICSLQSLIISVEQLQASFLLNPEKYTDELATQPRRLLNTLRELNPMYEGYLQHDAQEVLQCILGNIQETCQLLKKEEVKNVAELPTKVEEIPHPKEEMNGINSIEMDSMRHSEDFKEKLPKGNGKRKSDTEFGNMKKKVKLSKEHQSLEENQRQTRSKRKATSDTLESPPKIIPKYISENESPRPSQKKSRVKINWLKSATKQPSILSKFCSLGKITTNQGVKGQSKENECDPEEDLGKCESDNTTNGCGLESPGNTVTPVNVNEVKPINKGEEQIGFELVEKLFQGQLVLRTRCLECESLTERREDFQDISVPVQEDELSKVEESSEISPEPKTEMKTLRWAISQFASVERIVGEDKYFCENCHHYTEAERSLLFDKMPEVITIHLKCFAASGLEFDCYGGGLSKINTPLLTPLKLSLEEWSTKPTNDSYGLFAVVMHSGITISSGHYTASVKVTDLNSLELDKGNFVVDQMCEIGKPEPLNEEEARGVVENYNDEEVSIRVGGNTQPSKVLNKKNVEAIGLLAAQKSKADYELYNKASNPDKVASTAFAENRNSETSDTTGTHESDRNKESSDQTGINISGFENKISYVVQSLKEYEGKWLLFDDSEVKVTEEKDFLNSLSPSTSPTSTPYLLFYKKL
T1 sequence (Q8TAF3 whole entry partner): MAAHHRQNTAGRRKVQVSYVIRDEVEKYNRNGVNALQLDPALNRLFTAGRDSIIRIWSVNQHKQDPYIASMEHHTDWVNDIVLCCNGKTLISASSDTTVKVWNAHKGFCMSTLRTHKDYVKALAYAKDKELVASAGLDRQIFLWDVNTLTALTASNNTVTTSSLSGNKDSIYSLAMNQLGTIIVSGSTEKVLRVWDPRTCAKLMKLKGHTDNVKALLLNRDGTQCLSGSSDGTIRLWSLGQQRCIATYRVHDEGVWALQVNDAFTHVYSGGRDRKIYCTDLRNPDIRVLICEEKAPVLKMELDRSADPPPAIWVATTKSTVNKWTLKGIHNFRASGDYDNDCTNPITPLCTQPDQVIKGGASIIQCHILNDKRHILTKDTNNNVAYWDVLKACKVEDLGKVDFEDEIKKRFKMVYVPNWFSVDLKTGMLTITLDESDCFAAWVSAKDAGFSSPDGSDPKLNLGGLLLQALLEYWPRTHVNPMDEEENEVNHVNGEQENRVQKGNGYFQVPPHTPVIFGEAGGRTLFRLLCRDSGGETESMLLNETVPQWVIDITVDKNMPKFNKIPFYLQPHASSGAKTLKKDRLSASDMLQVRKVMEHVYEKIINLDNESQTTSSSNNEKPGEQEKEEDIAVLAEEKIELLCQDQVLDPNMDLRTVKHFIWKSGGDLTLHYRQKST

| Compound | fluorescence signal in high throughput screen (USP1/UAF1 complex [1]) | identified as inhibitor of USP1 in initial in vitro screening (USP1/UAF1 complex [3]) | other results |
| --- | --- | --- | --- |
| CC[N+](C)(CC)CCC[n+]1c(-c2ccccc2)c2cc(N)ccc2c2ccc(N)cc21.[I-].[I-] [Biomol AP401 (propidium iodide), propidium iodide] | substantial low fluorescence signal |  |  |
| CC(C)C[C@H](NC(=O)[C@H](Cc1ccccc1)NC(=O)c1cnccn1)B(O)O [Bortezomib] |  |  | FA/BRCA pathway [2]: inhibited the FA/BRCA pathway |
| NC1=C(Cl)C(=O)c2ccccc2C1=O [Formula III (933)] |  | inhibitors of USP1 |  |
| O=C1Cc2ccccc2C(=O)N1Cc1ccco1 [Formula V (947)] |  | inhibitors of USP1 | IC50 (USP1/UAF1 complex [4]): 7.5 µM |
| COc1ccc(CN2C(=O)Cc3ccccc3C2=O)cc1OC [Formula VI (009)] |  | inhibitors of USP1 | IC50 (USP1/UAF1 complex [4]): 2.4 µM |
| CO[C@@]12[C@H](COC(N)=O)C3=C(C(=O)C(C)=C(N)C3=O)N1C[C@@H]1N[C@@H]12 [MMC, mitomycin C] |  |  | markers of the DNA damage response (FANCD2 monoubiquitination, CHK1 phosphorylation) (HeLa cells): can activate markers of the DNA damage response |
| CCCCCCCCCCCCCCCC(=O)C1=C(O)C(CO)OC1=O (centres unmarked) [RK-682] | substantial low fluorescence signal |  |  |
| CC1(C)CCC2=C(O1)c1ccccc1C(=O)C2=O [β-lapachone] | substantial low fluorescence signal |  |  |
| Ub-aldehyde [reference compound] |  |  | Ub-VS labeling of endogenous DUBs (HA-labeling) [5]: inhibited |
